1 molecule from patent US20240150335A1, “FUSED RING DERIVATIVES CONTAINING 1,4-OXAZEPANE” (MEDSHINE DISCOVERY INC., priority 2021, published 2024) can be followed below.

Data set [1] can be described thus: Pharmacokinetic evaluation in CD-1 mice. Type of data set: in vivo. The settings on record: oral administration 10.0 mg/kg. As to the method:
Experimental Example 3: Pharmacokinetic Evaluation of the Compound of the Present Disclosure in […]
Experimental purpose: To test the pharmacokinetics of the compound in CD-1 mice in vivo
Experimental materials: CD-1 mice (male, 20 to 40 g, 4 to 6 weeks old, Beijing Vital River)
The pharmacokinetic characteristics of the compound in rodents after intravenous injection and oral administration were tested according to the standard protocol. In the experiment, the candidate compound was formulated into clear solutions, and a single intravenous injection and oral administration were respectively given to two mice. The vehicle of intravenous injection and oral administration was 1:1:8 DMSO/Solutol/water. The whole blood samples within 24 hours were collected in commercial EDTA2K anticoagulant tubes. The tubes were centrifuged at 6000 g for 3 minutes. The supernatant was separated to obtain plasma samples. 20 times the volume of acetonitrile solution containing internal standard was added to precipitate protein. The mixture was centrifuged. The supernatant was take out. An equal volume of water was added. Then the mixture was centrifuged to take the supernatant as the sample for sampling. Plasma concentration was quantitatively analyzed by LC-MS/MS analysis method, and pharmacokinetic parameters were calculated, such as apparent volume of distribution, clearance rate, half-life, area under the drug-time curve.

Data set [2] is described as follows: Rat tissue (bone marrow) distribution. The format is in vivo. The conditions noted are these: SD rats. Here is the method: Experimental Example 6: Evaluation of Rat Tissue (Bone Marrow) Distribution of the Compound of the Present Disclosure
Experimental purpose: To test the distribution of the compound in the bone marrow and plasma of SD rats
Experimental materials: SD rats (male, 200 to 300 g, 6 to 10 weeks old, Beijing Vital River)
The content of the compound in the bone marrow and plasma of rats after oral administration was tested according to the standard protocol. In the experiment, the candidate compound was formulated into a clear solution. The vehicle was 5:95 DMSO and 10% hydroxypropyl β-cyclodextrin aqueous solution. A dose of 5 mg/kg was given to rats as a single oral administration. The whole blood samples and bone marrow samples were collected at 0.25, 0.5, 1, 2, 4, 6, and 24 hours, respectively. The whole blood samples were collected in commercial EDTA2K anticoagulant tubes. The tubes were centrifuged at 6000 g for 3 minutes. The supernatant was separated to obtain plasma samples. The acetonitrile solution containing internal standard was added to precipitate protein. The mixture was centrifuged. The supernatant was take out. An equal volume of water was added. After mixing well, plasma concentration was quantitatively analyzed by LC-MS/MS analysis method, and the area under the drug-time curve was calculated. The left femur of the rat was taken, and the muscle was removed. One end was cut off, placed in a centrifuge tube with the open end downwards. The tubes were centrifuged at 8000 rpm for 1 minute. The precipitate was bone marrow. The bone marrow was mixed with 50% methanol-water, grinded into a homogenate. The homogenate was added with an acetonitrile solution containing an internal standard to precipitate protein. The mixture was centrifuged to take the supernatant, added with an equal volume of water. After mixing well, the drug concentration in bone marrow was quantitatively analyzed by LC-MS/MS analysis method, and the area under the drug-time curve was calculated.
The calculation formula of bone marrow/plasma distribution coefficient is: Bone marrow/Plasma Ratio=bone marrow AUC0-last/plasma AUC0-last.

The next data set has as its target DPP1 of U937 cells (Homo sapiens (Human), UniProt P53634). Description: Activity test of inhibiting DPP1 in U937 cells. Type of data set: cell-based. The settings on record: Gly-Phe-AFC probe, read-out: IC50, inhibitory activity on DPP1 of U937 cells. Here is the method:
Experimental Example 2: Activity Test of Inhibiting DPP1 in U937 Cells
Experimental Materials: • 1) Experimental reagents and consumables
The cell plate was placed in a carbon dioxide incubator for 1 day; • (3) after incubation for 1 hour, 100 μM Gly-Phe-AFC probe solution was added thereto, that is, 60 mM Gly-Phe-AFC probe stock solution was diluted with culture medium to 500 μM working solution; the working solution in 10 μL per well was transferred into the cell plate, and the cell plate was incubated in a carbon dioxide incubator for 1 hour;
3) the plate was read, and the data were analyzed: • (1) plate reading: after the cell incubation was completed, the cell plate was taken out, and the plate was read on Victor Nivo.
Using the equation (Sample−Min)/(Max−Min)×100% to convert the raw data into inhibition rate, the IC50 value might be obtained by curve fitting with four parameters (obtained by “log (inhibitor) vs. response—Variable slope” mode in GraphPad Prism).

Setting [3] is: plasma, intravenous injection 2.0 mg/kg.
Where [4] appears, read: bone marrow, 5 mg/kg single oral administration.

Chain of DPP1 of U937 cells (P53634 25-134): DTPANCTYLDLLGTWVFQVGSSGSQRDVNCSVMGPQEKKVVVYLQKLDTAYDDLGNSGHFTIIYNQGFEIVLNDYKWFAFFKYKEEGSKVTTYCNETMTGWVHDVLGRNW
Chain of DPP1 of U937 cells (P53634 231-394): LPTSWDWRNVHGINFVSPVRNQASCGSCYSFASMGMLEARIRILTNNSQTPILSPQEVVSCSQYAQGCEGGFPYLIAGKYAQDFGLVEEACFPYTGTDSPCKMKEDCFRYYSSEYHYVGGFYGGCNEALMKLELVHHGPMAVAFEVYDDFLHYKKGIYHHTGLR
Chain of DPP1 of U937 cells (P53634 395-463): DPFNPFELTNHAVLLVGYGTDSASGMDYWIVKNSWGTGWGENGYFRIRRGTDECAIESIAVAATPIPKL

On to `Cn1ncc2ccc(-c3ccc(C[C@@H](C#N)NC(=O)[C@@H]4CNCCCO4)c(F)c3)cc21` [Compound 8], for which the “Bioavailability F” value in data set [1] (intravenous injection 2.0 mg/kg) is listed as 79.6%. In data set [1] (setting [3]), the “Clearance rate CL” value was found to be 18.7 mL/min/kg and the “Volume of distribution at steady state Vdss” value came out at 8.3 L/kg. Moreover, the Cmax in data set [1] (plasma, intravenous injection 2.0 mg/kg, read-out: Peak concentration Cmax) was determined as 2310 nM. For the same molecule, in data set [1] (plasma), the “Area under drug-time curve AUC0-∞ PO” value worked out at 17.008 µM·h and the “Half life T1/2 (PO)” value is 4.6 h. In data set [2] (5 mg/kg oral, bone marrow AUC0-last/plasma AUC0-last), the “Bone marrow/plasma distribution coefficient” value was 7.0. Also, in data set [2] (setting [4]), the “Bone marrow Area under drug-time curve AUC0-last PO” value was 68856 nmol·h/kg and the “Bone marrow Peak concentration Cmax” value worked out at 5014 nmol/kg. The “Plasma Area under drug-time curve AUC0-last PO” value in data set [2] (plasma, 5 mg/kg single oral administration) turned out to be 9.902 µM·h. In addition, the Cmax in data set [2] (plasma, 5 mg/kg single oral administration, read-out: Plasma Peak concentration Cmax) came to 1020 nM. Also, on DPP1 of U937 cells, the IC50 (in general, the point on the concentration scale where inhibition reaches its midpoint) stood at 2.4 nM.
